{"source": "patent US20230142803A1", "about": "“NATURAL KILLER CELLS AND ILC3 CELLS AND USES THEREOF” (Celularity Inc., priority 2015, published 2023)", "key": {"[1]": {"test_system": "CD34+ cells", "experiment": "Three-stage method with SR-1 or CH223191 in Stage 1 and Stage 2 media", "assay_type": "cell-based", "conditions": "for effects on fold expansion, cell purity (CD56+CD3−), and cytotoxicity of K562 cells: 10 μM and 1 μM, K562 at 10:1 (E:T)", "protocol": "CD34^+ cells are cultured in the following medium formulations for the indicated number of days, and aliquots of cells are taken for assessment of cell count, cell viability, characterization of natural killer cell differentiation and functional evaluation.\nStage 1 medium: 90% Stem Cell Growth Medium (SCGM) (CellGro®), 10% Human Serum-AB, supplemented with 4.5 U/mL low molecular weight heparin (LMWH), 25 ng/mL recombinant human thrombopoietin (TPO), 25 ng/mL recombinant human Flt3L, 27 ng/mL recombinant human stem cell factor (SCF), 25 ng/mL recombinant human IL-7, 0.05 ng/mL recombinant human IL-6 (500-fold), 0.25 ng/mL recombinant human granulocyte colony-stimulating factor (G-CSF) (50-fold), 0.01 ng/mL recombinant human granulocyte-macrophage colony-stimulating factor (GM-CSF) (500-fold), 0.10% gentamicin, and 1 to 10 μm StemRegenin-1 (SR-1).\nStage 2 medium: 90% SCGM, 10% Human Serum-AB, supplemented with 4.5 U/mL low molecular weight heparin (LMWH), 25 ng/mL recombinant human Flt3L, 27 ng/mL recombinant human SCF, 25 ng/mL recombinant human IL-7, 20 ng/mL recombinant human IL-15, 0.05 ng/mL recombinant human IL-6 (500-fold), 0.25 ng/mL recombinant human G-CSF (50-fold), 0.01 ng/mL recombinant human GM-CSF (500-fold), 0.10% gentamicin, and 1 to 10 μm SR1.\nStage 3 medium: 90% […]™, 10% Human Serum-AB, 0.025 mM 2-mercaptoethanol (55 mM), supplemented with 22 ng/mL recombinant human SCF, 1000 U/mL recombinant human IL-2, 20 ng/mL recombinant human IL-7, 20 ng/mL recombinant human IL-15, 0.05 ng/mL recombinant human IL-6 (500-fold), 0.25 ng/mL recombinant human G-CSF (50-fold), 0.01 ng/mL recombinant human GM-CSF (500-fold), and 0.10% gentamicin.\nStemregenin-1 (SR-1) was evaluated as a component of Stage 1 and Stage 2 media using the three-stage method outlined in Example 1, above, at concentrations of 1 μM, 10 μM, and 30 μM. The same concentrations of CH223191 in the three-stage method were also evaluated."}, "[2]": {"test_system": "three-stage NK cells", "experiment": "Varying third medium components, flow cytometry evaluation", "assay_type": "cell-based", "conditions": "presence of SR1 in the third medium", "from_the_text": "A flow cytometry panel (Table 7) was utilized for evaluation on days 0, 7, 14, 21, 28, and 35, including cell surface markers CD56, CD3, CD117, CD94, IL1R1, CD11a, CD34, and CD14/CD15 and intracellular markers RORγt, AHR, and perforin."}}, "data": [{"smiles": "Cc1ccccc1/N=N/c1ccc(NC(=O)c2ccnn2C)c(C)c1", "note": "[CH223191, 1-methyl-N-(2-methyl-4-(2-(2-methylphenyl)diazenyl)phenyl)-1H-pyrazole-5-carboxamide]", "values": [{"measurement": "effects on fold expansion, cell purity (CD56+CD3−), and cytotoxicity of K562 cells", "setting": "[1]", "value": "Comparable effects"}]}, {"smiles": "CC(C)n1cnc2c(NCCc3ccc(O)cc3)nc(-c3csc4ccccc34)nc21", "note": "[SR-1, 4-(2-(2-(benzo[b]thien-3-yl)-9-isopropyl-9H-purin-6-ylamino)ethyl)phenol]", "values": [{"measurement": "effects on fold expansion, cell purity (CD56+CD3−), and cytotoxicity of K562 cells", "setting": "[1]", "value": "Comparable effects"}, {"measurement": "cytotoxicity of NK cells produced", "setting": "[1]; SR-1 at 10 μM in Stage 1 and Stage 2 media vs 1 μM and 30 μM", "value": "higher cytotoxicity than the other two concentrations tested"}, {"measurement": "effect on NK (CD11a+) vs ILC3 (CD11a−) cell production", "setting": "[2]", "value": "favor NK (CD11a+) cell production"}]}]}
